Literature values in EP1382610A2, “Conductive metal-containing nucleic acids” (The University of Saskatchewan, priority 1997, dated 1999).

Conditions: imino protons

pKa | Structure (SMILES)
9.4 | Nc1nc2nc[nH]c2c(=O)[nH]1 [G, guanine]
9.9 | Cc1c[nH]c(=O)[nH]c1=O [T, thymine]
